Measured values published in patent EP0236230A1, “Aqueous suspensions containing at least one compound chosen from 6,7-dihydrobenzoquinolizine carboxylic acids, and their use in the treatment of plants” (RIKER LABORATORIES, INC., priority 1986, dated 1987).
≈ marks a conversion by molar mass, not a printed value.

What was measured:
PSEUDOMONAS VIRIDIFLAVA = assay: Minimal inhibitory concentration (CMI) at varying pH; format: cell-based
Excerpt: (§1) Une autre conséquence inattendue de la valeur du pH est l'influence sur l'activité antibactérienne elle-même. Selon l'invention, c'est en milieu pH acide que l'on obtient la meilleure activité antibactérienne.
(§2) A titre d'exemple, on donne ci-après les concentrations minimales inhibitrices (CMI) obtenues vis-à-vis de quelques bactéries phytopathogènes en faisant varier le pH.

XANTHOMONAS CYNARAE = assay: as above; format: cell-based
Excerpt: as §1, §2

ERWINIA AMYLOVORA = assay: as above; format: cell-based
Excerpt: as §1, §2

XANTHOMONAS PRUNI = assay: as above; format: cell-based
Excerpt: as §1, §2

PSEUDOMONAS SYRINGAE = assay: as above; format: cell-based
Excerpt: as §1, §2

physchem = settings: water
Excerpt: Une deuxième solution consiste à diminuer la solubilité du produit.

**Q.** Which results are given for `CC1CCc2cc(F)cc3c(=O)c(C(=O)O)cn1c23` (centres unmarked) [Fluméquine, acide [1H-5H] dihydro-6,7 fluoro-9 méthyl-5 oxo-1 benzo [i,j] quinolizine carboxylique-2]?
**A.** concentrations minimales inhibitrices (CMI) (PSEUDOMONAS VIRIDIFLAVA; pH 5): 1; concentrations minimales inhibitrices (CMI) (PSEUDOMONAS VIRIDIFLAVA; pH 6,5): 2; concentrations minimales inhibitrices (CMI) (PSEUDOMONAS VIRIDIFLAVA; pH 7,4): 4; concentrations minimales inhibitrices (CMI) (XANTHOMONAS CYNARAE; pH 5): 0,5; concentrations minimales inhibitrices (CMI) (XANTHOMONAS CYNARAE; pH 6,5): 1; concentrations minimales inhibitrices (CMI) (XANTHOMONAS CYNARAE; pH 7,4): 2; concentrations minimales inhibitrices (CMI) (ERWINIA AMYLOVORA; pH 5): 0,1; concentrations minimales inhibitrices (CMI) (ERWINIA AMYLOVORA; pH 6,5): 0,5; concentrations minimales inhibitrices (CMI) (ERWINIA AMYLOVORA; pH 7,4): 1; concentrations minimales inhibitrices (CMI) (XANTHOMONAS PRUNI; pH 5): 0,25; concentrations minimales inhibitrices (CMI) (XANTHOMONAS PRUNI; pH 6,5): 1; concentrations minimales inhibitrices (CMI) (XANTHOMONAS PRUNI; pH 7,4): 2; concentrations minimales inhibitrices (CMI) (PSEUDOMONAS SYRINGAE; pH 5): 0,5; concentrations minimales inhibitrices (CMI) (PSEUDOMONAS SYRINGAE; pH 6,5): 2; concentrations minimales inhibitrices (CMI) (PSEUDOMONAS SYRINGAE; pH 7,4): 4; solubility (physchem; pH 5, water): ~0.1 mg/mL (≈ 383 µM); solubility (physchem; pH 7, water): 0.3 to 0.4 mg/mL (≈ 1150 to 1530 µM)
